Data on 35 molecules can be found in patent US7566805B2, “Modafinil compositions” (priority 2003, dated 2009).

The conditions of data set [1]: cited from earlier work.
Data set [2] can be described thus: Dog pharmacokinetic study of a single intravenous dose of R-(−)-modafinil vs racemic modafinil. The class given is in vivo. Particulars: dogs; for AUC(0-inf) / Cmax / Vd / clearance / half-life: dog, plasma, 5 mg/kg IV, Mean. The source says: A dog pharmacokinetic study (N=6) of a single intravenous dose of R-(−)-modafinil was completed. The purity of the R-(−)-modafinil in the administered formulation was ca 80 percent. This formulation was compared to a formulation of racemic modafinil, also administered by the intravenous route to the same dogs in a crossover design. Ir. Table VII, “Cmax” is the maximum blood plasma concentration, “AUC (inf)” is the extrapolated area under the curve, “t1/2” is the amount of time for the blood plasma level to decrease to half of the Cmax level beginning at administration, “Vd” is the volume of distribution, and “CL” is the clearance rate of modafinil.

The conditions of data set [3]: dogs, 30 mg/kg oral dose, plasma 2 to 9 hours post-dose, cited from earlier work; for Mean AUC (sulfone): sulfone metabolite.
A short description of data set [4]: Racemic modafinil:malonic acid co-crystal pharmacokinetic study in dogs (vs micronized pure modafinil). The class given is in vivo. As to the method:
As a reference, micronized modafinil with a median particle size of about 2 micrometers was also administered in the study.

For data set [5] the following is noted: cited from earlier work. This is another data set of the same source.
Data set [6] in a line: Solid-state stability of modafinil:malonic acid co-crystal at various temperatures and relative humidities. The class given is physicochemical. Particulars: for degradation / degradation per day: four week period. As to the method: At 60 degrees C., about 0.14 percent degradation per day was determined based on a simple exponential model. At 80 degrees C., about 8 percent degradation per day was determined.
FIGS. 49 and 50 show the % area impurities as measured via HPLC versus time (weeks) for samples stored at various conditions including: 25 degrees C., 60% RH; 40 degrees C., 75 percent RH; 40 degrees C., ambient RH; 60 degrees C., ambient RH; 80 degrees C., ambient RH; and −20 degrees C.

Data set [7] can be described thus: Dynamic vapor sorption isotherm. Particulars: up to at least 40 percent RH at 26 degrees C. The class given is physicochemical.
A short description of data set [8]: Pharmacokinetic study with dogs: modafinil:malonic acid formulated with lactose vs PROVIGIL tablets. The class given is in vivo. The text has this: In Table VI, “Cmax” is the maximum blood plasma concentration, “AUC (inf)” is the extrapolated area under the curve, “t1/2” is the amount of time for the blood plasma level to decrease to half of the Cmax level beginning at administration, “Tmax” is the time to maximum blood plasma concentration from administration, “CL” is the clearance rate of modafinil, and “F %” is the percent bioavailability.

The nature of data set [9]: In vitro dissolution in simulated gastric fluid (SGF) and simulated intestinal fluid (SIF). The note with it: micronized, blended with lactose, HPMC capsules.
Text: Further aqueous solubility can be measured in simulated gastric fluid (SGF) or simulated intestinal fluid (SIF) rather than water.
Both samples were blended with lactose and filled into HPMC capsules.
[10] abbreviates: second value listed in the cell.

Where two headings read alike, the source gives them in different places.

As for `O=C(O)[C@H](O)[C@@H](O)[C@H](O[C@@H]1O[C@H](CO)[C@H](O)[C@H](O)[C@H]1O)[C@H](O)CO` [Lactobionic acid], the “pKa Values” in data set [1] (first value listed in the cell) is 3.2.

Take `O=C(O)[C@@H](O)[C@H](O)[C@H](O)[C@@H](O)C(=O)O` [Galactaric acid]: the “pKa Values” in data set [1] (setting [10]) is recorded as 3.63.

Consider `Cc1ncc(CO)c(CN)c1O` [Pyridoxamine], for which the “pKa Values” in [1] (first value listed in the cell) is about 9.

On to `CC(C)[C@H](N)C(=O)O` [Valine], for which the “pKa Values” is on record as about 4.5 in data set [1] (first value listed in the cell) and about 9 in data set [1] (setting [10]).

For the molecule `N=C(N)NCCC[C@H](N)C(=O)O` [Arginine], the figures for the “pKa Values” in data set [1] (first value listed in the cell) and in data set [1] (setting [10]) were 2.18 and 9.09, respectively.

In the case of `N[C@@H](Cc1ccccc1)C(=O)O` [Phenylalanine], the “pKa Values” in data set [1] (first value listed in the cell) was about 2; in data set [1] (setting [10]), about 9.

As a reminder, the AUC(0-inf) is total exposure, with the tail of the curve extrapolated. A low value points to low exposure. A word on the Vd: it is a proportionality between amount in the body and measured concentration, not a real space. A word on the clearance: it is the rate of elimination divided by the concentration. The term half-life denotes how long it takes for the measured level to halve. A lower half-life goes with rapid decline. The term Tmax denotes the time from dosing to the highest level. In [2], `NC(=O)C[S+]([O-])C(c1ccccc1)c1ccccc1` (racemic) [Racemic Modafinil, (±)-2-[(Diphenylmethyl)sulfinyl]acetamide] had an AUC(0-inf) of 15100 ng·h/mL, a Cmax of 8680 ng/mL, a Vd of 0.589 L/kg and a clearance of 5.68 mL/min/kg. The half-life in [2] is 1.05 h. In addition, in data set [3], the “Mean AUC (racemate)” value is 46760 ± 6950 ng·h/mL and the “Mean AUC (sulfone)” value was 35120 ± 6930 ng·h/mL. The half-life in data set [4] (dog, in vivo) was 2.1 ± 0.7 h. In addition, in [4] (dog, in vivo, median particle size 2 micrometers (pure modafinil), 16 micrometers (co-crystal)), the Cmax was 11000 ± 5900 ng/mL. For the same molecule, the Tmax in data set [4] (dog, in vivo, read-out: Tmax) was found to be 1.3 ± 0.6 h. Moreover, the solubility in water result in data set [5] is “practically insoluble”.

`N[C@@H](CS)C(=O)O` [Cysteine]: the figures for the “pKa Values” in data set [1] (first value listed in the cell), in [1] (setting [10]) and in [1] (third value listed in the cell) were 1.71, 8.33 and 10.78, respectively.

Turning to `O=C(O)c1cc(=O)[nH]c(=O)[nH]1` [Orotic acid], the “pKa Values” is 5.85 in data set [1] (first value listed in the cell) and 8.95 in [1] (setting [10]).

With `CCCCCCCCCCCCCCCC(=O)O` [Palmitic acid], the “pKa Values” in data set [1] (first value listed in the cell) is on record as 4.9.

`Nc1ncnc2nc[nH]c12` [Adenine]: the “pKa Values” in [1] (first value listed in the cell) is listed as 3.8.

`NC(=O)C[S@+]([O-])C(c1ccccc1)c1ccccc1` [Example 40-983, S-(+)-2-[(Diphenylmethyl)sulfinyl]acetamide]: in [3], the “Mean AUC (racemate)” value was 50940 ± 8770 ng·h/mL and the “Mean AUC (sulfone)” value is 83120 ± 21660 ng·h/mL.

For the molecule `C[C@@H](O)[C@H](N)C(=O)O` [Threonine], the “pKa Values” is 2.15 in [1] (first value listed in the cell) and 9.12 in data set [1] (setting [10]).

As to `N[C@@H](Cc1c[nH]c2ccccc12)C(=O)O` [Tryptophan], the “pKa Values” in data set [1] (setting [10]) was 9.39.

Regarding Imidazole, the “pKa Values” in data set [1] (first value listed in the cell) is 6.92.

As for `CC[C@H](C)[C@H](N)C(=O)O` [Isoleucine], the “pKa Values” in [1] (first value listed in the cell) is 2.32; in [1] (setting [10]), 9.76.

For “Racemic Modafinil:Malonic Acid Co-crystal [Modafinil: malonic acid co-crystal]”, the “AUC higher than that of the pure modafinil” value in data set [4] was 40 to 60%. The Tmax in [4] turned out to be 1.7 ± 0.6 h; in [8] (200 mg modafinil, Mean), 2 h. Moreover, the degradation result in data set [6] (20 degrees C.) and in data set [6] (40 degrees C.) was “No degradation” each time. Moreover, the degradation per day entry in data set [6] (60 degrees C., simple exponential model) was “about 0.14 percent degradation per day”; in data set [6] (80 degrees C.) it was “about 8 percent degradation per day”. In addition, the “stability on storage (% area impurities via HPLC)” value in data set [6] (stored at or below 40 degrees C. for at least 26 weeks) was “stable”. Also, in data set [7], the “water adsorption (DVS)” value is given as “no appreciable water adsorption”. Also, in data set [8] (200 mg modafinil, Mean), the CL was found to be 368.33. Besides, the “AUC (inf)” value in data set [8] (200 mg modafinil, Mean, extrapolated, in ng·h/mL) is reported as 50545.00. The molecule also returned a Cmax in data set [8] (200 mg modafinil, Mean, in ng/mL) of 11246.67. This molecule showed a F % in [8] (200 mg modafinil, Mean, percent bioavailability) of 81.57%. Further, the “Cmax compared with PROVIGIL tablets” value in data set [8] (FIG. 56) was “increased”. Besides, the “release of modafinil into solution vs free form of modafinil” value in data set [9] (SGF) and in data set [9] (SIF) was “more quickly” throughout.

For the molecule `CN(C)CC(=O)O` [Dimethylglycine], in data set [1] (first value listed in the cell), the “pKa Values” is on record as 2.5.

With `Nc1ccc(C(=O)O)c(O)c1` [Salicylic acid, 4-amino], the “pKa Values” is 3.25 in data set [1] (first value listed in the cell), 10 in data set [1] (setting [10]) and 3.5 in [1] (third value listed in the cell).

For the molecule `Nc1ccc(C(=O)O)cc1` [4-aminobenzoic acid], the “pKa Values” in data set [1] (first value listed in the cell) is listed as 4.7.

Turning to `O=C(O)CCCC(=O)O` [Glutaric acid], the entries for the “pKa Values” in data set [1] (first value listed in the cell) and in data set [1] (setting [10]) were 2.7 and 4.5, respectively.

As for Acetohydroxamic acid, the “pKa Values” in [1] (first value listed in the cell) is given as 8.7.

Turning to `CC1(C(=O)O)CCC(C(=O)O)C1(C)C` (stereo not drawn) [Camphoric acid], in data set [1] (setting [10]), the “pKa Values” was 5.83.

A word on the melting point: it is the temperature, or range, at which the solid turns liquid. As to `Cc1cc(N)c2ccccc2c1O` [Vitamin K5], the melting point was 280 to 282 °C (dec.). Also, in data set [1] (first value listed in the cell), the “pKa Values” is about 9.

As for Urea, the “pKa Values” in data set [1] (first value listed in the cell) is listed as about 8.

Take `OC[C@@H](O)[C@H](O)[C@@H](O)CO` [Xylitol]: the “pKa Values” in [1] (first value listed in the cell) was about 9.

Regarding `Nc1ccncc1` [4-aminopyridine], the “pKa Values” in [1] (first value listed in the cell) is 10.

As to `Oc1ncnc2[nH]ncc12` [Allopurinaol], in data set [1] (first value listed in the cell), the “pKa Values” is given as 10.2.

Consider `NC(=O)c1cccnc1` [Nicotinamide], for which the “pKa Values” in data set [1] (first value listed in the cell) was 3.3.

For `NC1[C@H](O)OC(CO)[C@@H](O)[C@H]1O` (stereo partly drawn) [Glucosamine], the “pKa Values” in [1] (first value listed in the cell) was 6.91.

Consider `NC(=O)C[C@H](N)C(=O)O` [Asparagine], for which the “pKa Values” in [1] (first value listed in the cell) is reported as 2.02; in data set [1] (setting [10]), 8.5.

As for `Cc1ncc(CO)c(CO)c1O` [Pyridoxine], the “pKa Values” in data set [1] (first value listed in the cell) is about 9.

Take `NC(=O)C[S@@+]([O-])C(c1ccccc1)c1ccccc1` [R-(−)-modafinil, R-(−)-2-[(Diphenylmethyl)sulfinyl]acetamide]: in data set [2], the AUC(0-inf) worked out at 15900 ng·h/mL, the Cmax turned out to be 7810 ng/mL, the Vd was found to be 0.647 L/kg and the clearance was 5.67 mL/min/kg. The half-life in data set [2] is 1.53 h. Also, the “difference in pharmacokinetics vs racemic modafinil” value in [2] (intravenous administration) is given as “no significant difference”. In data set [3], the “Mean AUC (racemate)” value was 97220 ± 12580 ng·h/mL and the “Mean AUC (sulfone)” value was 8690 ± 1220 ng·h/mL.

Consider `CCCCCCCCCCCC(=O)O` [Lauric acid], for which, in [1] (first value listed in the cell), the “pKa Values” is on record as about 4.5.

For `CCOc1ccc(NC(N)=O)cc1` [4-ethoxyphenyl urea], the “pKa Values” in [1] (first value listed in the cell) is reported as ~7-9.
